From patent US9145411B2, “Substituted amino-pyrimidine derivatives” (Asana Biosciences, LLC, priority 2012, dated 2015) come the findings set out here.

Broadly, the IC50 is the concentration needed to halve the response being measured.

Assay [1] deals with pAkt(T308). The assay is described as follows: In-cell Western assay, pAkt(T308), U87MG cells. The class given is cell-based. The conditions noted are these: Homo sapiens, U-87 MG, read-out: inhibition of pAkt(T308), IC50. As for the experimental part: (§1) Cells from human prostate cancer cell line PC3 (American Type Culture Collection (ATCC), Manassas, Va. 20108 USA) were seeded at an optimal density of 22,000 cell/well in 96-well plates containing Ham's F12K medium (90 μL) and incubated overnight. The compound dilutions were carried out in 100% DMSO followed by a dilution in the medium. Test compounds were added in serial dilutions to the wells and incubated for 2 hours. The cells were washed and fixed with 4% paraformaldehyde. After incubation at room temperature for 1 hour in the dark, blocking was done for 2 hours at room temperature. […] IC50 values were calculated using a sigmoidal dose-response curve fit in GraphPad Prism® v5 software.
(§2) In-cell Western assays for pAkt(T308) and pS6RP were also carried out in a glioma cancer cell line with a PTEN null mutation (U87MG cells), in a similar manner to the protocol described above for PC3 cells, in order to assess the ability of the compounds to inhibit the Akt-pathway in a glioma cancer cell line. […] Compounds of the invention cause inhibition of pAkt(T308), pAkt(S473) and pS6RP in U87MG, BT474 and T47D cell lines as determined by these assays.

In assay [2] the test system is pS6RP. The assay can be described thus: In-cell Western assay, pS6RP, U87MG cells. The class given is cell-based. The conditions noted are these: Homo sapiens, U-87 MG, read-out: inhibition of pS6RP, IC50. Here is the method:
as §1, §2

Regarding `CC(=O)Nc1cccc(-c2cnc3c(N4CCOCC4)nc(-c4cnc(N)nc4)nc3c2)c1` [Example 3, N-(3-(2-(2-Aminopyrimidin-5-yl)-4-morpholinopyrido[3,2-d]pyrimidin-7-yl)-phenyl)acetamide], the IC50 in assay [1] and in assay [2] was less than 500 nM each time.
